# Assay results: patent publication US11040954B1, “CXCR3 receptor agonists” (RECEPTOS LLC, priority 2016, dated 2021)
# Target: T1, CXCR3 (Homo sapiens, UniProt P49682)
# T1 construct: host or cells: CHO-K1 (cAMP Hunter CHOK1 CXCR3 Gi cell line)
# T1 sequence (P49682 1-368): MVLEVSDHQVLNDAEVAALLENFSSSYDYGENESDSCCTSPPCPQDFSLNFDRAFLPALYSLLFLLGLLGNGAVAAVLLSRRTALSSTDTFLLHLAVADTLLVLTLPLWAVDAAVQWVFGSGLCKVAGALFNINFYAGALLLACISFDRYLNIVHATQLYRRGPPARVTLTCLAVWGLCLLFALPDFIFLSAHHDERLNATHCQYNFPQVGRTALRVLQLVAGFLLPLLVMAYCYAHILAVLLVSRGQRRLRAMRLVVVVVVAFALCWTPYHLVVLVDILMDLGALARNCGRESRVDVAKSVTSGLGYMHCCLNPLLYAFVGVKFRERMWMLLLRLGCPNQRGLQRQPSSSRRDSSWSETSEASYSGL
# Assay: CXCR3 cAMP agonist assay (cAMP Hunter CHOK1 CXCR3 Gi cell line, forskolin-stimulated, HitHunter cAMP detection)
# Format: cell-based
# Settings: cAMP Hunter CHOK1 CXCR3 Gi cells, 20 μM forskolin, 30 minutes; read-out: Activity (CXCR3 cAMP agonist assay compound EC50)
# Outline: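 CHOK1 cells expressing human CXCR3 with Gi coupling, 50,000/well in suspension in HBSS/10 mM HEPES/0.1% BSA pH 7.4, were co-treated with 20 μM forskolin and compound (12-point, 0-10 μM, 1% DMSO) for 30 min. cAMP was read by enzyme-complementation luminescence; CXCL11 dose response set maximum efficacy.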
row,Compound,EC50 [nM]
1,O=C(CCC(=O)N1Cc2ccccc2C[C@H]1C(=O)N[C@@H](CCN1CCC(F)(F)C1)C(=O)Nc1ccc(Cl)c(Cl)c1F)c1ccccc1 [Compound 23-4],50 to 250
2,Cc1ccc(NC(=O)[C@H](CCN)NC(=O)[C@@H]2Cc3ccccc3CN2C(=O)CCC(=O)c2ccccc2)c(OC(F)(F)F)c1 [Compound 13-7],50 to 250
3,Cc1ccc(F)c(NC(=O)[C@H](CCN)NC(=O)[C@@H]2Cc3ccccc3CN2C(=O)CCC(=O)c2ccccc2)c1 [Compound 2-33],< 50
4,NCC[C@H](NC(=O)[C@@H]1Cc2ccccc2CN1C(=O)CCC(=O)c1ccccc1)C(=O)Nc1cccc(Cl)c1C(F)(F)F [Compound 14-16],250 to 500
5,Cc1ccc(NC(=O)[C@H](CCCNC(=N)N)NC(=O)[C@@H]2Cc3ccccc3CN2C(=O)CCC(=O)c2ccccc2)cc1C [Compound 1-33],< 50
6,NCC[C@H](NC(=O)[C@@H]1Cc2ccccc2CN1C(=O)CCC(=O)c1ccccc1)C(=O)Nc1c(Cl)cccc1Cl [Compound 14-7],> 500
7,CN(CC(C)(C)C)C(=O)CCC(=O)N1Cc2ccccc2C[C@H]1C(=O)NC1(C(=O)Nc2ccc(Cl)c(Cl)c2F)CCNCC1 [Compound 12-137],50 to 250
8,Cc1ccc(NC(=O)[C@H](CCN2CCC(O)CC2)NC(=O)[C@@H]2Cc3ccccc3CN2C(=O)CCC(=O)c2ccccc2)c(F)c1 [Compound 28-3],250 to 500
9,CN(C)CCN(C)C(=O)CCC(=O)N1Cc2ccccc2C[C@H]1C(=O)N[C@@H](CCN)C(=O)Nc1ccc(Cl)c(Cl)c1F [Compound 15-28],> 500
10,Cc1ccc(NC(=O)[C@H](CCN)NC(=O)[C@@H]2Cc3ccccc3CN2C(=O)CCC(=O)c2ccccc2)c(F)c1 [Compound 2-31],50 to 250
11,"Cc1cccc(NC(=O)C2(NC(=O)[C@@H]3Cc4ccccc4CN3C(=O)CCC(=O)c3ccccc3)CCNCC2)c1Cl [Compound 11-1, (S)—N-(4-((2-chloro-3-methylphenyl)carbamoyl)piperidin-4-yl)-2-(4-oxo-4-phenylbutanoyl)-1,2,3,4-tetrahydroisoquinoline-3-carboxamide]",> 500
12,COc1cccc(NC(=O)[C@H](CCCCN)NC(=O)[C@@H]2Cc3ccccc3CN2C(=O)CCC(=O)c2ccccc2)c1 [Compound 1-11],250 to 500
13,NCC[C@H](NC(=O)[C@@H]1Cc2ccccc2CN1C(=O)CCC(=O)c1ccccc1)C(=O)Nc1cc(Cl)ccc1F [Compound 2-37],50 to 250
14,NCCCC[C@H](NC(=O)[C@@H]1Cc2ccccc2CN1C(=O)CCC(=O)c1ccccc1)C(=O)Nc1ccc(C(F)(F)F)c(F)c1 [Compound 1-19],250 to 500
15,NCC[C@H](NC(=O)[C@@H]1Cc2ccccc2CN1C(=O)CCC(=O)c1ccccc1)C(=O)Nc1ccc(Cl)cc1C(F)(F)F [Compound 14-12],50 to 250
16,"Cc1cnc(NC(=O)[C@H](CCN)NC(=O)[C@@H]2Cc3ccccc3CN2C(=O)CCC(=O)c2ccccc2)cc1Cl [Compound 27-1, (S)—N—((S)-4-amino-1-((4-chloro-5-methylpyridin-2-yl)amino)-1-oxobutan-2-yl)-2-(4-oxo-4-phenylbutanoyl)-1,2,3,4-tetrahydroisoquinoline-3-carboxamide]",< 50
17,NCCCC[C@H](NC(=O)[C@@H]1Cc2ccccc2CN1C(=O)CCC(=O)c1ccccc1)C(=O)Nc1ccc(Cl)cc1F [Compound 1-23],50 to 250
18,NCC[C@H](NC(=O)[C@@H]1Cc2ccc(F)cc2CN1C(=O)CCC(=O)N1CCCC12CCC2)C(=O)Nc1ccc(Cl)c(Cl)c1F [Compound 15-59],< 50
19,"CC(=O)N1CCN(CC[C@H](NC(=O)[C@@H]2Cc3ccccc3CN2C(=O)CCC(=O)c2ccccc2)C(=O)Nc2ccc(Cl)c(C)c2)CC1 [Compound 19-1, (S)—N—((S)-4-(4-acetylpiperazin-1-yl)-1-((4-chloro-3-methylphenyl)amino)-1-oxobutan-2-yl)-2-(4-oxo-4-phenylbutanoyl)-1,2,3,4-tetrahydroisoquinoline-3-carboxamide]",250 to 500
20,NCC[C@H](NC(=O)[C@@H]1Cc2ccccc2CN1C(=O)CCC(=O)c1ccccc1)C(=O)Nc1ccc(Cl)cc1OC(F)(F)F [Compound 14-23],50 to 250
21,Cc1cc(NC(=O)[C@H](CCNCC(F)(F)F)NC(=O)[C@@H]2Cc3ccccc3CN2C(=O)CCC(=O)c2ccccc2)ccc1Cl [Compound 8-6],50 to 250
22,Cc1cc(OC(F)(F)F)c(NC(=O)[C@H](CCN)NC(=O)[C@@H]2Cc3ccccc3CN2C(=O)CCC(=O)c2ccccc2)cc1Cl [Compound 14-24],< 50

# Continued, values first:
row,EC50 [nM],Compound
1,50 to 250,Cc1cc(NC(=O)C(CC2CCNCC2)NC(=O)[C@@H]2Cc3ccccc3CN2C(=O)CCC(=O)c2ccccc2)ccc1Cl (mixture of isomers) [Compound 4-11]
2,< 50,Cc1cc(NC(=O)[C@H](CCN)NC(=O)[C@@H]2Cc3ccccc3CN2C(=O)CCC(=O)N2CCCC23CCC3)cc(C)c1Cl [Compound 10-10]
3,< 50,CO[C@@H]1CCCN(C(=O)CCC(=O)N2Cc3ccccc3C[C@H]2C(=O)N[C@@H](CCN)C(=O)Nc2ccc(Cl)c(Cl)c2F)C1 [Compound 15-27]
4,50 to 250,Cc1cc(NC(=O)[C@H](CCN)NC(=O)[C@@H]2Cc3ccccc3CN2C(=O)CCC(=O)c2ccccc2)cc(Cl)c1Cl [Compound 4-18]
5,50 to 250,CC(C)(C)CC1CCCCN1C(=O)CCC(=O)N1Cc2ccccc2C[C@H]1C(=O)N[C@@H](CCN)C(=O)Nc1ccc(Cl)c(Cl)c1F (some centres unmarked) [Compound 15-14]
6,> 500,Cc1cc(NC(=O)[C@H](CCN)NC(=O)[C@@H]2Cc3ccccc3CN2C(=O)CCC(=O)NC2(C(F)(F)F)CC2)ccc1Cl [Compound 12-85]
7,< 50,Cc1cc(NC(=O)[C@H](CCN)NC(=O)[C@@H]2Cc3ccccc3CN2C(=O)CCC(=O)c2ccccc2)ncc1Cl [Compound 4-16]
8,250 to 500,CC(=O)N1CCN(C(=O)CCC(=O)N2Cc3ccccc3C[C@H]2C(=O)N[C@@H](CCN)C(=O)Nc2ccc(Cl)c(C)c2)CC1 [Compound 12-106]
9,> 500,Cc1ccc(C(=O)CCC(=O)N2Cc3ccccc3C[C@H]2C(=O)N[C@@H](CCCCN)C(=O)Nc2ccc(Cl)c(C)c2)cc1F [Compound 7-5]
10,< 50,Cc1cc(NC(=O)[C@H](CCN)NC(=O)[C@@H]2Cc3ccccc3CN2C(=O)CCC(=O)N2CCCC2C(C)C)ccc1Cl (some centres unmarked) [Compound 12-71]
11,< 50,NCC[C@H](NC(=O)[C@@H]1Cc2ccccc2CN1C(=O)CCC(=O)N1CCC2CCCCC2C1)C(=O)Nc1ccc2c(c1)CCC2 (some centres unmarked) [Compound 10-5]
12,< 50,Cc1cc(NC(=O)[C@H](CCN)NC(=O)[C@@H]2Cc3ccccc3CN2C(=O)CCC(=O)Nc2ccccc2)ccc1Cl [Compound 12-81]
13,< 50,Cc1cc(NC(=O)[C@H](CCN2CCCC2)NC(=O)[C@@H]2Cc3ccccc3CN2C(=O)CCC(=O)c2ccccc2)ccc1Cl [Compound 3-8]
14,50 to 250,CCOc1cccc(C(=O)CCC(=O)N2Cc3ccccc3C[C@H]2C(=O)N[C@@H](CCCCN)C(=O)Nc2ccc(Cl)c(C)c2)c1 [Compound 7-7]
15,< 50,Cc1cc(NC(=O)[C@H](CCN)NC(=O)[C@@H]2Cc3ccccc3CN2C(=O)CCC(=O)NCCC(C)(C)C)ccc1Cl [Compound 12-2]
16,< 50,Cc1cc(NC(=O)[C@H](CCN)NC(=O)[C@@H]2Cc3ccccc3CN2C(=O)CCC(=O)N2CCCC(C(C)C)C2)ccc1Cl (some centres unmarked) [Compound 12-96]
17,250 to 500,"Cc1cc(NC(=O)[C@@H](CC23CC(N)(C2)C3)NC(=O)[C@@H]2Cc3ccccc3CN2C(=O)CCC(=O)c2ccccc2)ccc1Cl [Compound 22-2, (S)—N—((R)-3-(3-aminobicyclo[1.1.1]pentan-1-yl)-1-((4-chloro-3-methylphenyl)amino)-1-oxopropan-2-yl)-2-(4-oxo-4-phenylbutanoyl)-1,2,3,4-tetrahydroisoquinoline-3-carboxamide]"
18,< 50,Cc1cc(NC(=O)[C@H](CCN)NC(=O)[C@@H]2Cc3ccccc3CN2C(=O)CCC(=O)NCC(C)(C)C)ccc1Cl [Compound 12-91]
19,< 50,Cc1cc(NC(=O)[C@H](CCN)NC(=O)[C@@H]2Cc3ccccc3CN2C(=O)CCC(=O)NCCC(C)C)ccc1Cl [Compound 12-80]
20,250 to 500,"Cc1cc(NC(=O)[C@H](CCCCN)NC(=O)[C@@H]2Cc3ccccc3CN2C(=O)CCC(=O)c2ccccc2)ccc1Cl (stereo in doubt) [Compound 4-2, (S)—N—((S)-6-amino-1-((4-chloro-3-methylphenyl)amino)-1-oxohexan-2-yl)-2-(4-oxo-4-phenylbutanoyl)-1,2,3,4-tetrahydroisoquinoline-3-carboxamide]"
21,50 to 250,C[C@@H]1CN(C(=O)CCC(=O)N2Cc3ccccc3C[C@H]2C(=O)N[C@@H](CCN)C(=O)Nc2ccc(Cl)c(Cl)c2F)CCN1C [Compound 15-64]
22,< 50,CO[C@H]1CCCN(C(=O)CCC(=O)N2Cc3ccccc3C[C@H]2C(=O)N[C@@H](CCN)C(=O)Nc2ccc(Cl)c(Cl)c2F)C1 [Compound 15-26]
23,< 50,Cc1cc(NC(=O)[C@H](CCN)NC(=O)[C@@H]2Cc3ccccc3CN2C(=O)CCC(=O)N2CCC(C#N)CC2)ccc1Cl [Compound 12-44]
24,< 50,CN(C(=O)CCC(=O)N1Cc2ccccc2C[C@H]1C(=O)N[C@@H](CCN)C(=O)Nc1ccc(Cl)c(Cl)c1F)C1CCCC1 [Compound 15-36]
25,50 to 250,Cc1cc(NC(=O)[C@H](CCN)NC(=O)[C@@H]2Cc3ccccc3CN2C(=O)CCC(=O)N2CCOCC2)ccc1Cl [Compound 10-2]
